Results taken from patent US11419852B2, “Beta-lactam compounds or salts thereof for use in long-acting prevention or treatment of a glucose metabolism disorder” (GLYCOLYSIS BIOMED CO., LTD., priority 2019, dated 2022).
Marks after values point to notes of the source that are not given here.

System: db/db mice
Test: Oral glucose tolerance test (OGTT)
Assay type: in vivo
Parameters: OGTT AUC: unit not given here
Details: dosing 6 weeks
Procedure: Four to five weeks old db/db mice (BKS.Cg-Dock7^m+/+Lepr^db/JNarl) and m/m mice (BKS.Cg-Dock7^m+/Dock7^m+) were obtained from National Laboratory Animal Center ([…], Taiwan). […] PMI Nutrition International, Brentwood, Mo.) and water ad libitum. […] Blood was sampled from the tail vein, and FPG levels were measured and recorded as the basic blood glucose levels. […] The total area under the curve (AUC) in OGTT was plotted and calculated by the Area Under Coordinates Program (StatsToDo Server, Department of Obstetrics and Gynecology, Chinese University of Hong Kong).

## C[C@@H](O)[C@H]1C(=O)N2C(C(=O)O)=C(S[C@@H]3CN[C@H](C(=O)Nc4cccc(C(=O)O)c4)C3)[C@H](C)[C@H]12 [DMH, ertapenem]
Ex 2 G4 db/db, DMH i.p. 0.1 mg/g bw/day, Week 12, 30 min
  Level of OGTT (blood glucose): 794 ± 60^bc
Ex 2 G4 db/db, DMH i.p. 0.1 mg/g bw/day, Week 12, 60 min
  Level of OGTT (blood glucose): 503 ± 67 mg/dL
Ex 2 G4 db/db, DMH i.p. 0.1 mg/g bw/day, Week 12, 120 min
  Level of OGTT (blood glucose): 372 ± 83 mg/dL
Ex 2 G4 db/db, DMH i.p. 0.1 mg/g bw/day, Week 16, 0 min
  Level of OGTT (blood glucose): 126 ± 43^ab
Ex 2 G4 db/db, DMH i.p. 0.1 mg/g bw/day, Week 16, 15 min
  Level of OGTT (blood glucose): 575 ± 44 mg/dL
Ex 2 G4 db/db, DMH i.p. 0.1 mg/g bw/day, Week 16, 30 min
  Level of OGTT (blood glucose): 609 ± 39^c
Ex 2 G4 db/db, DMH i.p. 0.1 mg/g bw/day, Week 16, 60 min
  Level of OGTT (blood glucose): 506 ± 52^c
Ex 2 G4 db/db, DMH i.p. 0.1 mg/g bw/day, Week 16, 120 min
  Level of OGTT (blood glucose): 270 ± 65^bd
Ex 2 G4 db/db, DMH i.p. 0.1 mg/g bw/day, Week 18, 0 min
  Level of OGTT (blood glucose): 263 ± 58 mg/dL
Ex 2 G4 db/db, DMH i.p. 0.1 mg/g bw/day, Week 18, 15 min
  Level of OGTT (blood glucose): 785 ± 57 mg/dL
Ex 2 G4 db/db, DMH i.p. 0.1 mg/g bw/day, Week 18, 30 min
  Level of OGTT (blood glucose): 894 ± 49 mg/dL
Ex 2 G4 db/db, DMH i.p. 0.1 mg/g bw/day, Week 18, 60 min
  Level of OGTT (blood glucose): 735 ± 47 mg/dL
Ex 2 G4 db/db, DMH i.p. 0.1 mg/g bw/day, Week 18, 120 min
  Level of OGTT (blood glucose): 447 ± 53 mg/dL
Ex 2 G4 db/db, DMH i.p. 0.1 mg/g bw/day, week 6
  OGTT AUC: 1033 ± 87^b
Ex 2 G4 db/db, DMH i.p. 0.1 mg/g bw/day, week 12
  OGTT AUC: 1096 ± 119^b
Ex 2 G4 db/db, DMH i.p. 0.1 mg/g bw/day, week 16
  OGTT AUC: 902 ± 85^b
Ex 2 G4 db/db, DMH i.p. 0.1 mg/g bw/day, week 18
  OGTT AUC: 1339 ± 80^b
Ex 2 G5 db/db, DMH i.p. 0.2 mg/g bw/day, Week 6, 0 min
  Level of OGTT (blood glucose): 166 ± 21 mg/dL
Ex 2 G5 db/db, DMH i.p. 0.2 mg/g bw/day, Week 6, 15 min
  Level of OGTT (blood glucose): 750 ± 57 mg/dL
Ex 2 G5 db/db, DMH i.p. 0.2 mg/g bw/day, Week 6, 30 min
  Level of OGTT (blood glucose): 618 ± 68 mg/dL
Ex 2 G5 db/db, DMH i.p. 0.2 mg/g bw/day, Week 6, 60 min
  Level of OGTT (blood glucose): 425 ± 63 mg/dL
Ex 2 G5 db/db, DMH i.p. 0.2 mg/g bw/day, Week 6, 120 min
  Level of OGTT (blood glucose): 316 ± 92^bc
Ex 2 G5 db/db, DMH i.p. 0.2 mg/g bw/day, Week 12, 0 min
  Level of OGTT (blood glucose): 191 ± 42^bc
Ex 2 G5 db/db, DMH i.p. 0.2 mg/g bw/day, Week 12, 15 min
  Level of OGTT (blood glucose): 879 ± 45 mg/dL
Ex 2 G5 db/db, DMH i.p. 0.2 mg/g bw/day, Week 12, 30 min
  Level of OGTT (blood glucose): 790 ± 40^bc
Ex 2 G5 db/db, DMH i.p. 0.2 mg/g bw/day, Week 12, 60 min
  Level of OGTT (blood glucose): 548 ± 69 mg/dL
Ex 2 G5 db/db, DMH i.p. 0.2 mg/g bw/day, Week 12, 120 min
  Level of OGTT (blood glucose): 440 ± 81^bc
Ex 2 G5 db/db, DMH i.p. 0.2 mg/g bw/day, Week 16, 0 min
  Level of OGTT (blood glucose): 154 ± 56^ab
Ex 2 G5 db/db, DMH i.p. 0.2 mg/g bw/day, Week 16, 15 min
  Level of OGTT (blood glucose): 619 ± 48 mg/dL
Ex 2 G5 db/db, DMH i.p. 0.2 mg/g bw/day, Week 16, 30 min
  Level of OGTT (blood glucose): 686 ± 34^bc
Ex 2 G5 db/db, DMH i.p. 0.2 mg/g bw/day, Week 16, 60 min
  Level of OGTT (blood glucose): 551 ± 52^bc
Ex 2 G5 db/db, DMH i.p. 0.2 mg/g bw/day, Week 16, 120 min
  Level of OGTT (blood glucose): 314 ± 54^bc
Ex 2 G5 db/db, DMH i.p. 0.2 mg/g bw/day, Week 18, 0 min
  Level of OGTT (blood glucose): 308 ± 51 mg/dL
Ex 2 G5 db/db, DMH i.p. 0.2 mg/g bw/day, Week 18, 15 min
  Level of OGTT (blood glucose): 943 ± 43 mg/dL
Ex 2 G5 db/db, DMH i.p. 0.2 mg/g bw/day, Week 18, 30 min
  Level of OGTT (blood glucose): 941 ± 53 mg/dL
Ex 2 G5 db/db, DMH i.p. 0.2 mg/g bw/day, Week 18, 60 min
  Level of OGTT (blood glucose): 753 ± 70 mg/dL
Ex 2 G5 db/db, DMH i.p. 0.2 mg/g bw/day, Week 18, 120 min
  Level of OGTT (blood glucose): 541 ± 63^bc
Ex 2 G5 db/db, DMH i.p. 0.2 mg/g bw/day, week 6
  OGTT AUC: 916 ± 110^b
Ex 2 G5 db/db, DMH i.p. 0.2 mg/g bw/day, week 12
  OGTT AUC: 1171 ± 117^bc
Ex 2 G5 db/db, DMH i.p. 0.2 mg/g bw/day, week 16
  OGTT AUC: 1002 ± 88^bc
Ex 2 G5 db/db, DMH i.p. 0.2 mg/g bw/day, week 18
  OGTT AUC: 1462 ± 104^b
Ex 2 G6 db/db, DMH i.p. 0.4 mg/g bw/day, Week 6, 0 min
  Level of OGTT (blood glucose): 175 ± 30 mg/dL
